This note sets out measurements from article PMC11378702 (RSC Advances, 2024).

For orientation: IC50 means the midpoint of a concentration-inhibition curve.

Structures are written as SMILES. Where two headings read alike, the source gives them in different places.

Experiment [1] deals with H1975. The experiment is described as follows: MTT anti-proliferative assay, H1975 cells. The following applies: Homo sapiens, NCI-H1975, 48 h, read-out: IC50 (μM) H1975. The experiment is classed as cell-based.
In experiment [2] the target is EGFR^WT (Homo sapiens, UniProt P00533). The experiment in a line: biochemical.
Chain of EGFR^WT (P00533 25-1210): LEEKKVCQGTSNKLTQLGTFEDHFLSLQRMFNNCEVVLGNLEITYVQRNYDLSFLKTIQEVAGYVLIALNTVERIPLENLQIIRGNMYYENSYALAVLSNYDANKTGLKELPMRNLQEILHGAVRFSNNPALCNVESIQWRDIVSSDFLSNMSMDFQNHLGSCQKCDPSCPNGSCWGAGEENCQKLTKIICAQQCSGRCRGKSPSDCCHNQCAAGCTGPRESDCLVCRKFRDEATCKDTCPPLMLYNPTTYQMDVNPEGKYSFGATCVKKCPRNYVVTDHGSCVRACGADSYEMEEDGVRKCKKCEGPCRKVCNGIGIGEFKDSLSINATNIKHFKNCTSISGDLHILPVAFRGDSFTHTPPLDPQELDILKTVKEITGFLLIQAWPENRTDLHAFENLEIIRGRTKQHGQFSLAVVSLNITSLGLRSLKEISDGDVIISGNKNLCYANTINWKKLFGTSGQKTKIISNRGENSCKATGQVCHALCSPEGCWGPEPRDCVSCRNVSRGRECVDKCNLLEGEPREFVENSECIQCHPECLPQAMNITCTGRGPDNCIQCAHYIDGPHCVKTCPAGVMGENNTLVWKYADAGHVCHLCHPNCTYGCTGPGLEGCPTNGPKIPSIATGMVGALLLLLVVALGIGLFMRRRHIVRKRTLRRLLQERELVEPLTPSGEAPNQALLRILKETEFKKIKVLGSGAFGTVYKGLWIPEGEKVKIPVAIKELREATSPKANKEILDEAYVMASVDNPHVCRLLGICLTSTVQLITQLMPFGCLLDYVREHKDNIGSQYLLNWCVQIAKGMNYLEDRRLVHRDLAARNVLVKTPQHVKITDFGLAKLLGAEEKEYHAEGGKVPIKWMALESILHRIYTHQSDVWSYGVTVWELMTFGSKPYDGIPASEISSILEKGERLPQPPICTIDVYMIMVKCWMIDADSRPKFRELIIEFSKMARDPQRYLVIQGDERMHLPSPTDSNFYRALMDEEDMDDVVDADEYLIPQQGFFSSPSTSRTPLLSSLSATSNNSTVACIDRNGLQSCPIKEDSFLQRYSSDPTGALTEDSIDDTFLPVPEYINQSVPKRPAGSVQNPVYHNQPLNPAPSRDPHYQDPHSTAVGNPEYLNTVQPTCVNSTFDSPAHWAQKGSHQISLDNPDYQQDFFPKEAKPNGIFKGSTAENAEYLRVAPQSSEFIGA
Experiment [3] addresses EGFR^T790M (Homo sapiens, UniProt P00533, T790M). The experiment is described as follows: biochemical. Format: biochemical.
Experiment [4] concerns A549. The experiment is described as follows: cells. Format: cell-based. The following applies: Homo sapiens, A549, 48 h, read-out: IC50 (μM) A549.
The subject of experiment [5] is A431. The experiment in a line: MTT anti-proliferative assay, A431 cells. The following applies: read-out: IC50 (μM) A431. The experiment is classed as cell-based, human.

Chain of EGFR^T790M (P00533 25-1210 T790M): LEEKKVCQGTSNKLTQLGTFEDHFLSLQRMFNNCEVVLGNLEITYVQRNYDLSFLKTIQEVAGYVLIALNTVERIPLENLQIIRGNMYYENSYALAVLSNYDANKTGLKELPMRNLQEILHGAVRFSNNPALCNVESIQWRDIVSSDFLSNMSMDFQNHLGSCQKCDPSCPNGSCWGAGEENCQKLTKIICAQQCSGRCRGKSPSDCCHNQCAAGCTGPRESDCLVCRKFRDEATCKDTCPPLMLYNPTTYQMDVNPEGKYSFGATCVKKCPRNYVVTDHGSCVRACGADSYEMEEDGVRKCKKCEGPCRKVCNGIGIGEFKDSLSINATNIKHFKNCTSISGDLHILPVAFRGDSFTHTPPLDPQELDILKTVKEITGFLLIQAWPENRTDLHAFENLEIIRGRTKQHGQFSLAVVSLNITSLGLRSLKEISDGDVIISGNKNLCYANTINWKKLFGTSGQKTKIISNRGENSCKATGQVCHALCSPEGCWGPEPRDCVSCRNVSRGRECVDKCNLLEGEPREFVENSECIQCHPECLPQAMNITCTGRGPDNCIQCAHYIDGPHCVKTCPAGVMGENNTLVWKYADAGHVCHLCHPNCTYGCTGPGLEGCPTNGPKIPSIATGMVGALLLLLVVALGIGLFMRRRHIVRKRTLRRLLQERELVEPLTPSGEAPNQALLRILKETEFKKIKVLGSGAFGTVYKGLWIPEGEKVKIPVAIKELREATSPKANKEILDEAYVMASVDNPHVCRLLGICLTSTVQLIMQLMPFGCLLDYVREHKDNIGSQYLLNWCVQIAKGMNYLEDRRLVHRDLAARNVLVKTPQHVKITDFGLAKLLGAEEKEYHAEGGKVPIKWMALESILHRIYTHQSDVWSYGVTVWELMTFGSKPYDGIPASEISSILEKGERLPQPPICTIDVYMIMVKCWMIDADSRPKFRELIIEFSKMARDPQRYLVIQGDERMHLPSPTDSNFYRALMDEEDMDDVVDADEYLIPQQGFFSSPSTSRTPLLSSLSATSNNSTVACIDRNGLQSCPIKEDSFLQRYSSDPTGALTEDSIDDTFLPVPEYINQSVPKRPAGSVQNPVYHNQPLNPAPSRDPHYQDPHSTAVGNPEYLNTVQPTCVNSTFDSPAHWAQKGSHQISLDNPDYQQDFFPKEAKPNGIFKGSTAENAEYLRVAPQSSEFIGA

Regarding `CCC(=O)C(=NNc1ccc(S(=O)(=O)Nc2ncccn2)cc1)C(C)=O` [Compound 5, 4-(2-(2,4-Dioxohexan-3-ylidene)hydrazineyl)-N-(pyrimidin-2-yl)benzenesulfonamide], the IC50 in experiment [1] was 20.1 ± 2.21 µM; in experiment [2] it was 0.0492 ± 0.0067 µM; in experiment [3], 0.0936 ± 0.0085 µM; in experiment [4] it was 19.2 ± 3.09 µM.
The matching figures for `CC(=O)C(=NNc1ccc(S(=O)(=O)Nc2ncccn2)cc1)C(C)=O` [Compound 6, 4-(2-(2,4-Dioxopentan-3-ylidene)hydrazineyl)-N-(pyrimidin-2-yl)benzenesulfonamide]: 15.7 ± 0.21 µM, 0.0526 ± 0.0093 µM, 0.0668 ± 0.0104 µM and 16.6 ± 0.92 µM.
`CC(=O)C(=NNc1ccc(S(=O)(=O)Nc2ncccn2)cc1)C(=O)c1ccccc1` [Compound 8, 4-[2-(1-Benzoyl-2-oxopropylidene)hydrazino]-N-pyrimidin-2-ylbenzenesulfonamide]: the IC50 in experiment [1] amounted to 2.31 ± 0.23 µM; in experiment [2], 0.0232 ± 0.0001 µM; in experiment [3], 0.0096 ± 0.0032 µM; in experiment [5] (MTT, two-day incubation, mean ± SD, n = 3), 4.12 ± 0.54 µM; in experiment [4], 4.78 ± 0.12 µM. Also, the “fold more potent than gefitinib (EGFR^T790M IC50)” value in experiment [3] (relative to gefitinib) is on record as 38 fold.
`CCOC(=O)/C(C#N)=N\Nc1ccc(S(=O)(=O)Nc2ncccn2)cc1` [Compound 9, Ethyl (Z)-2-cyano-2-(2-(4-(N-(pyrimidin-2-yl)sulfamoyl)phenyl)hydrazineylidene)acetate]: the IC50 was 13.1 ± 0.67 µM in experiment [1], 0.0435 ± 0.0002 µM in experiment [2], 0.0171 ± 0.0001 µM in experiment [3] and 15 ± 1.27 µM in experiment [4].
Regarding `N#CC(=NNc1ccc(S(=O)(=O)Nc2ncccn2)cc1)C(N)=S` [Compound 10, 2-Cyano-(2-(4-(N-(pyrimidin-2-yl)sulfamoyl)phenyl)hydrazono)ethanethioamide], the IC50 in experiment [1] came out at 15.8 ± 2.48 µM; in experiment [2], 0.0315 ± 0.0058 µM; in experiment [3] it was 0.0608 ± 0.0062 µM; in experiment [4] it was 19.7 ± 0.34 µM.
As for `N#CC(=NNc1ccc(S(=O)(=O)Nc2ncccn2)cc1)C(N)=C(C#N)C#N` [Compound 11, 2-Amino-3,3-dicyano-N-(4-(N-(pyrimidin-2-yl)sulfamoyl)phenyl)acrylohydrazonoyl cyanide], the IC50 turned out to be 14.1 ± 1.23 µM in experiment [1]; 0.0477 ± 0.0114 µM in experiment [2]; 0.133 ± 0.0162 µM in experiment [3]; 15.1 ± 0.58 µM in experiment [5] (Homo sapiens, A-431, 48 h); 13.6 ± 1.32 µM in experiment [4].
`CCOC(=O)C(=NNc1ccc(S(=O)(=O)Nc2ncccn2)cc1)C(=O)OCC` [Compound 12, Diethyl 2-(2-(4-(N-(pyrimidin-2-yl)sulfamoyl)phenyl)hydrazineylidene)malonate]: the IC50 in experiment [1] worked out at 6.12 ± 0.24 µM; in experiment [2], 0.0145 ± 0.0075 µM; in experiment [3], 0.0354 ± 0.0086 µM; in experiment [4] it was 5.15 ± 0.3 µM.
The matching figures for `CSC1=NC(=N)C(=NNc2ccc(S(=O)(=O)Nc3ncccn3)cc2)C(N)=C1C#N` [Compound 13, 4-{-2-[4-Amino-5-cyano-2-imino-6-(methylthio)pyridin-3(2H)-ylidene]hydrazino}-N-pyrimidin-2-ylbenzenesulfonamide]: 17.1 ± 1.62 µM, 0.0417 ± 0.0082 µM, 0.215 ± 0.0152 µM and 15.5 ± 1.34 µM.
With `CSc1nc(NC(=O)C(=NNc2ccc(S(=O)(=O)Nc3ncccn3)cc2)C(C)=O)cc(N)c1C#N` [Compound 14, N-(4-Amino-5-cyano-6-(methylthio)pyridin-2-yl)-3-oxo-2-{[4-(pyrimidin-2-ylsulfamoyl)phenyl]hydrazono}butanamide], the IC50 in experiment [1] worked out at 4.59 ± 0.43 µM; in experiment [2], 0.0153 ± 0.0031 µM; in experiment [3], 0.0243 ± 0.0034 µM; in experiment [4], 7.56 ± 0.27 µM.
Regarding `C#Cc1cccc(Nc2ncnc3cc(OCCOC)c(OCCOC)cc23)c1` [Erlotinib, reference compound], the results for the IC50 in experiment [1] and in experiment [4] were 12.9 ± 1.23 µM and 17.5 ± 2.34 µM, respectively.
Take `C=CC(=O)Nc1cc(Nc2nccc(-c3cn(C)c4ccccc34)n2)c(OC)cc1N(C)CCN(C)C` [Osimertinib, reference compound]: the IC50 in experiment [1] worked out at 0.93 ± 0.09 µM.
